Measured values: patent publication US4272437A, “Antibacterial agents, and 4-thio azetidinone intermediates” (priority 1979, dated 1981)
Values after ≈ are worked out from the molar mass of the structure shown. Like-named read-outs stand apart in the source and are kept apart here.

Experiments:
Str. faecalis A-20688 = assay: MIC, tube dilution, Streptococcus faecalis A20688; type: cell-based; conditions: overnight 37° C.; for MIC: Enterococcus faecalis, A20688, Str. faecalis A20688, read-out: Minimum Inhibitory Concentration (M.I.C.)
Text: (§1) Representative compounds of the present invention were subjected to in vitro antibiotic screening against a variety of microorganisms.

[1] = system: Staph. aureus (Meth-Res) A-15097; assay: MIC, tube dilution, Staphylococcus aureus A15097 (Meth-Res); type: cell-based; conditions: Staph. aureus A15097 (Meth-Res), overnight 37° C.; for MIC: Staphylococcus aureus, read-out: Minimum Inhibitory Concentration (M.I.C.)
Text: as §1

Pr. mirabilis A-9900 = assay: MIC, tube dilution, Proteus mirabilis A9900; type: cell-based; conditions: overnight 37° C.; for MIC: Proteus mirabilis, A9900, Proteus mirabilis A9900, read-out: Minimum Inhibitory Concentration (M.I.C.)
Text: as §1

Ent. cloacae A-9656 = assay: MIC, tube dilution, Enterobacter cloacae A9656; type: cell-based; conditions: overnight 37° C.; for MIC: Enterobacter cloacae, A9656, Enterobacter cloacae A9656, read-out: Minimum Inhibitory Concentration (M.I.C.)
Text: as §1

Str. pneumoniae A-9585 = assay: MIC, tube dilution, Streptococcus pneumoniae A9585; type: cell-based; conditions: overnight 37° C., Nutrient Broth; for MIC: Streptococcus pneumoniae, A9585, Str. pneumoniae A9585, read-out: Minimum Inhibitory Concentration (M.I.C.)
Text: as §1

[2] = system: Klebsiella species A20468; assay: MIC, tube dilution, Klebsiella species A20468; type: cell-based; conditions: Klebsiella species (K. pneumoniae) A20468, overnight 37° C.; for MIC: read-out: Minimum Inhibitory Concentration (M.I.C.)
Text: as §1

E. coli A-20341-1 = assay: MIC, tube dilution, Escherichia coli A20341-1; type: cell-based
Text: as §1

Ps. aeruginosa A-21213 = assay: MIC, tube dilution, Pseudomonas aeruginosa A21213; type: cell-based; conditions: overnight 37° C.; for MIC: read-out: Minimum Inhibitory Concentration (M.I.C.)
Text: as §1

E. coli A-15119 = assay: MIC, tube dilution, Escherichia coli A15119; type: cell-based; conditions: overnight 37° C.; for MIC: Escherichia coli, A15119, E. coli A15119, read-out: Minimum Inhibitory Concentration (M.I.C.)
Text: as §1

Str. pyogenes A-9604 = assay: MIC, tube dilution, Streptococcus pyogenes A9604; type: cell-based; conditions: overnight 37° C., Nutrient Broth; for MIC: Streptococcus pyogenes, A9604, Str. pyogenes A9604, read-out: Minimum Inhibitory Concentration (M.I.C.)
Text: as §1

[3] = system: Staph. aureus (Pen-Res) A-9606; assay: MIC, tube dilution, Staphylococcus aureus A9606 (Pen-Res); type: cell-based; conditions: Staph. aureus A9606 (Pen-Res), overnight 37° C.; for MIC: Staphylococcus aureus, read-out: Minimum Inhibitory Concentration (M.I.C.)
Text: as §1

Proteus vulgaris A21559 = assay: MIC, tube dilution, Proteus vulgaris A21559; type: cell-based; conditions: overnight 37° C.; for MIC: Proteus vulgaris, A21559, Proteus vulgaris A21559, read-out: Minimum Inhibitory Concentration (M.I.C.)
Text: as §1

S. aureus A9537 = assay: In vivo protection of mice, lethal infection with S. aureus A9537; conditions: IM, 2 treatments; for ED50: Staphylococcus aureus, A9537, im, read-out: PD50
Method: Representative compounds of the present invention were also tested in vivo in mice and their PD50 (dose of compound in mg/kg required to protect 50% of the treated mice against an otherwise lethal infection of a micro-organism) values determined with respect to the test organisms shown below.

Ps. aeruginosa A-9843A = assay: MIC, tube dilution, Pseudomonas aeruginosa A9843A; type: cell-based; conditions: overnight 37° C.; for MIC: Pseudomonas aeruginosa, A9843A, read-out: Minimum Inhibitory Concentration (M.I.C.), Pseudomonas aeruginosa A9843A
Text: as §1

Staph. aureus A-9537 = assay: MIC, tube dilution, Staphylococcus aureus A9537; type: cell-based; conditions: overnight 37° C., Nutrient Broth; for MIC: Staphylococcus aureus, A9537, Staph. aureus A9537, read-out: Minimum Inhibitory Concentration (M.I.C.)
Text: as §1

Pr. morganii A-15153 = assay: MIC, tube dilution, Proteus morganii A15153; type: cell-based; conditions: overnight 37° C.; for MIC: Morganella morganii, A15153, Proteus morganii A15153, read-out: Minimum Inhibitory Concentration (M.I.C.)
Text: as §1

Ser. marcescens A-20019 = assay: MIC, tube dilution, Serratia marcescens A20019; type: cell-based; conditions: overnight 37° C.; for MIC: Serratia marcescens, A20019, Serratia marcescens A20019, read-out: Minimum Inhibitory Concentration (M.I.C.)
Text: as §1

[4] = system: Staph. aureus A-9537 and 50% serum; assay: MIC, tube dilution, Staph. aureus A9537 + 50% serum; type: cell-based, Staphylococcus aureus; conditions: overnight 37° C.; for MIC: Staphylococcus aureus, read-out: Minimum Inhibitory Concentration (M.I.C.)
Text: as §1

Proteus rettgeri A21203 = assay: MIC, tube dilution, Proteus rettgeri A21203; type: cell-based; conditions: overnight 37° C.; for MIC: Providencia rettgeri, A21203, Proteus rettgeri A21203, read-out: Minimum Inhibitory Concentration (M.I.C.)
Text: as §1

Ent. cloacae A-9659 = assay: MIC, tube dilution, Enterobacter cloacae A9659; type: cell-based; conditions: overnight 37° C.; for MIC: Enterobacter cloacae, A9659, Enterobacter cloacae A9659, read-out: Minimum Inhibitory Concentration (M.I.C.)
Text: as §1

K. pneumoniae A-15130 = assay: MIC, tube dilution, Klebsiella pneumoniae A15130; type: cell-based; conditions: overnight 37° C.; for MIC: Klebsiella pneumoniae, A15130, K. pneumoniae A15130, read-out: Minimum Inhibitory Concentration (M.I.C.)
Text: as §1

Work on `CC1=C(C(=O)O)N2C(=O)[C@H]([C@@H]3COC(C)(C)O3)[C@H]2S1` (relative stereo) [Example 103, (4'R,5R,6S and 4'S,5S,6R) 6-(2',2'-Dimethyl-1',3'-dioxolan-4'-yl)-2-methylpenem-3-carboxylic Acid (Isomer C)] yielded an MIC (Str. faecalis A-20688) of over 63 µg/mL, an MIC [1] of over 63 µg/mL and an MIC (Pr. mirabilis A-9900) of 63 µg/mL (≈ 221 µM). The MIC (Ent. cloacae A-9656) was over 63 µg/mL, the MIC (Str. pneumoniae A-9585) was 63 µg/mL (≈ 221 µM) and the MIC [2] was over 63 µg/mL. It also gave an MIC (E. coli A-20341-1; Escherichia coli, A203411, E. coli A20341-1; overnight 37° C.; read-out: Minimum Inhibitory Concentration (M.I.C.)) of over 63 µg/mL, an MIC (Ps. aeruginosa A-21213; Pseudomonas aeruginosa, A21213, Pseudomonas aeruginosa A21213) of 63 µg/mL (≈ 221 µM) and an MIC (E. coli A-15119) of over 63 µg/mL. For the same compound, the MIC (Str. pyogenes A-9604) was 63 µg/mL (≈ 221 µM), the MIC [3] was over 63 µg/mL and the MIC (Proteus vulgaris A21559) was over 63 µg/mL. It also gave an ED50 (S. aureus A9537; 8 × 10^5 organisms) of over 5 mg/kg, an MIC (Ps. aeruginosa A-9843A) of 63 µg/mL (≈ 221 µM) and an MIC (Staph. aureus A-9537) of over 63000 ng/mL. The MIC (Pr. morganii A-15153) was over 63 µg/mL, the MIC (Ser. marcescens A-20019) was over 63 µg/mL and the MIC [4] was over 32 µg/mL. It also gave an MIC (Proteus rettgeri A21203) of over 63 µg/mL, an MIC (Ent. cloacae A-9659) of over 63 µg/mL and an MIC (K. pneumoniae A-15130) of over 63 µg/mL.
In the case of `NC1CCC(C2=C(C(=O)O)N3C(=O)C[C@H]3S2)C1` (single isomer, unassigned) [98 isomer B, 2-(3-Aminocyclopentyl)-penem-3-carboxylic acid], the “Minimum Inhibitory Concentration (M.I.C.)” value (Str. faecalis A-20688; Str. faecalis A20688) is reported as 8 µg/mL, the “Minimum Inhibitory Concentration (M.I.C.)” value [1] is reported as over 63 µg/mL and the “Minimum Inhibitory Concentration (M.I.C.)” value (Pr. mirabilis A-9900; Proteus mirabilis A9900) is reported as 1 µg/mL. The “Minimum Inhibitory Concentration (M.I.C.)” value (Ent. cloacae A-9656; Enterobacter cloacae A9656) was 2 µg/mL, the “Minimum Inhibitory Concentration (M.I.C.)” value (Str. pneumoniae A-9585; Str. pneumoniae A9585) was “.008 µg/mL” and the “Minimum Inhibitory Concentration (M.I.C.)” value [2] was over 63 µg/mL. The “Minimum Inhibitory Concentration (M.I.C.)” value (E. coli A-20341-1; E. coli A20341-1; overnight 37° C.) was 16 µg/mL, the “Minimum Inhibitory Concentration (M.I.C.)” value (Ps. aeruginosa A-21213; Pseudomonas aeruginosa A21213) was over 63 µg/mL and the “Minimum Inhibitory Concentration (M.I.C.)” value (E. coli A-15119; E. coli A15119) was 1 µg/mL. For the same compound, the “Minimum Inhibitory Concentration (M.I.C.)” value (Str. pyogenes A-9604; Str. pyogenes A9604) was “.008 µg/mL”, the “Minimum Inhibitory Concentration (M.I.C.)” value [3] was over 63 µg/mL and the “Minimum Inhibitory Concentration (M.I.C.)” value (Proteus vulgaris A21559; Proteus vulgaris A21559) was 8 µg/mL. For the same compound, the PD50 (S. aureus A9537; 9.1 × 10^5 organisms, listed as Ex. 98 (isomer B)) was 0.12 mg/kg/treatment, the “Minimum Inhibitory Concentration (M.I.C.)” value (Ps. aeruginosa A-9843A; Pseudomonas aeruginosa A9843A) was 63 µg/mL and the “Minimum Inhibitory Concentration (M.I.C.)” value (Staph. aureus A-9537; Staph. aureus A9537) was “.03 µg/mL”. The “Minimum Inhibitory Concentration (M.I.C.)” value (Pr. morganii A-15153; Proteus morganii A15153) was 4 µg/mL, the “Minimum Inhibitory Concentration (M.I.C.)” value (Ser. marcescens A-20019; Serratia marcescens A20019) was 2 µg/mL and the “Minimum Inhibitory Concentration (M.I.C.)” value [4] was “.25 µg/mL”. The “Minimum Inhibitory Concentration (M.I.C.)” value (Proteus rettgeri A21203; Proteus rettgeri A21203) was 1 µg/mL, the “Minimum Inhibitory Concentration (M.I.C.)” value (Ent. cloacae A-9659; Enterobacter cloacae A9659) was 8 µg/mL and the “Minimum Inhibitory Concentration (M.I.C.)” value (K. pneumoniae A-15130; K. pneumoniae A15130) was 4 µg/mL.
For `NCc1ccc(C2=C(C(=O)O)N3C(=O)CC3S2)cc1` (stereo not drawn) [Example 74, 2-(p-Aminomethylphenyl)penem-3-carboxylic Acid], the MIC (Str. faecalis A-20688) was 1 µg/mL (≈ 3.62 µM), the MIC [1] was 32 µg/mL (≈ 116 µM) and the MIC (Pr. mirabilis A-9900) was 4 µg/mL (≈ 14.5 µM). The MIC (Ent. cloacae A-9656) was 32 µg/mL (≈ 116 µM), the MIC (Str. pneumoniae A-9585) was 0.001 µg/mL (≈ 0.00362 µM) and the MIC [2] was over 125 µg/mL. The MIC (E. coli A-20341-1; Escherichia coli, A203411; E. coli A20341-1; overnight 37° C.; read-out: Minimum Inhibitory Concentration (M.I.C.)) was 125 µg/mL (≈ 452 µM), the MIC (Ps. aeruginosa A-21213; Pseudomonas aeruginosa A21213) was over 125 µg/mL and the MIC (E. coli A-15119) was 8 µg/mL (≈ 29 µM). For the same compound, the MIC (Str. pyogenes A-9604) was 0.001 µg/mL (≈ 0.00362 µM), the MIC [3] was 32 µg/mL (≈ 116 µM) and the MIC (Proteus vulgaris A21559) was 16 µg/mL (≈ 57.9 µM). It also gave an ED50 (S. aureus A9537; 7.3 × 10^5 organisms) of 0.82 mg/kg, an MIC (Ps. aeruginosa A-9843A) of over 125 µg/mL and an MIC (Staph. aureus A-9537) of 4 ng/mL (≈ 0.0145 µM). It also gave an MIC (Pr. morganii A-15153) of 16 µg/mL (≈ 57.9 µM), an MIC (Ser. marcescens A-20019) of 16 µg/mL (≈ 57.9 µM) and an MIC [4] of 2 µg/mL. For the same compound, the MIC (Proteus rettgeri A21203) was 16 µg/mL (≈ 57.9 µM), the MIC (Ent. cloacae A-9659) was 32 µg/mL (≈ 116 µM) and the MIC (K. pneumoniae A-15130) was 32 µg/mL (≈ 116 µM).
